Tests used:
C57BL6 mice = assay: CFA inflammatory pain model, Blackbox behavioral analysis of hind paw usage; type: in vivo; conditions: for reversal of CFA-induced mechanical hypersensitivity: beginning at 24 hours after intraplantar administration
Excerpt: To evaluate the effect of different treatments on voluntary pain-related behaviors in mice, we used the Blackbox behavioral analysis system, as previously described (Zhang, et al., PAIN, 2022 Dec. 1; 163 (12): 2326-2336, incorporated herein by reference in its entirety).
• Male and female C57BL6 mice (n=5 per group) • Complete Freund's Adjuvant (CFA, Sigma) • Saline • PBS • DMSO • Compound 1 • Compound 2 • Syringes (for injections) • Hargreaves apparatus (for thermal pain testing) • Blackbox behavioral analysis setup
• Divide mice into groups (n=10 per group). • Inject 20 μL of CFA or saline into the right hind paw of each mouse.
• 24 hours after CFA injection, randomly assign mice to the following groups: • Control Group: PBS+PBS • CFA+PBS Group • CFA+DMSO Group • CFA+Compound 1 Group • CFA+Compound 2 Group
• Inject the designated treatment (PBS (20 μL), DMSO (20 μL), Compound 1 (1 μM in 20 μL PBS), or Compound 2 (1 μM in 20 μL DMSO)) into the plantar right paw of each mouse according to their assigned group.
• Perform Blackbox behavioral analysis and Hargreaves test at the following time points after drug injection: 1 hour, 3 hours, 6 hours, and 24 hours.
• Blackbox Behavioral Analysis: • Place each mouse in the Blackbox apparatus for 10 minutes. • Record and analyze behaviors indicative of pain or discomfort (e.g., grooming, paw licking, flinching).
• Record the data for each mouse at each time point. • Compare the results across different groups to assess the effects of the treatments on pain response.
This protocol outlines the steps to assess the impact of different treatments on pain response in mice using Blackbox behavioral analysis. Mice are injected with CFA or saline, followed by treatment with Compound 1 or Compound 2, and negative controls using vehicle (PBS or DMSO) alone.
• 1. Control Group: PBS+PBS • 2. CFA+PBS Group • 3. CFA+DMSO Group • 4. CFA+Compound 1 Group • 5. CFA+Compound 2 Group
• 1 hour after drug injection • 3 hours after drug injection • 6 hours after drug injection • 24 hours after drug injection Precise timing and consistent handling throughout the experiment were utilized to maintain the validity of the results.
Effect of Compound 1. Eight-week-old male and female mice (n=5 mice/group) were injected with CFA (20 μL; intradermal) or saline (20 μL) into the right hind paw. Left (contralateral) hindpaw luminance (FIG. 3A) and ratio of time (FIG. 3B), as well as right hindpaw luminance (FIG. 4A) and ratio of time (FIG. 4B), were assessed as surrogates for mechanical pain hypersensitivity at 1-, 3-, 6-, and 24-hours post-treatment.
Data were analyzed using a two-way ANOVA to assess the effects of CFA injection and subsequent treatments on hindpaw usage and thermal pain hypersensitivity. Post-hoc comparisons were performed using Dunnett's test to identify significant differences between treatment groups.
Effect of Compound 2. Eight-week-old male and female mice (n=5 mice/group) were injected with CFA (20 μL; intradermal) or saline (20 μL) into the right hind paw. Left (contralateral) hind paw luminance (FIG. 5A) and ratio of time (FIG. 5B), as well as right hindpaw luminance (FIG. 6A) and ratio of time (FIG. 6B), were assessed as a readout of mechanical pain hypersensitivity at 1-, 3-, 6-, and 24-hours post-treatment.
Data were analyzed using a two-way ANOVA to assess the effects of CFA injection and subsequent treatments on hindpaw usage (mechanical hypersensitivity). Post-hoc comparisons were performed using Dunnett's test to identify significant differences between treatment groups.

[1] = tested on: cultured dorsal root ganglion (DRG) neurons; assay: Calcium flux in cultured DRG neurons (Fura-2AM calcium imaging); type: cell-based, mice
Method: Methods: Assessment of Compound 1 Induced Calcium Flux in Cultured DRG Neurons To evaluate the effect of Compound 1 and Compound 2 on calcium flux in cultured dorsal root ganglion (DRG) neurons isolated from 8-week-old male mice, the following protocols were performed:
• 8-week-old C57BL6 male mice • Fura-2AM (calcium indicator dye) • Compound 1 (at concentrations of 1 μM and 10 μM) • Compound 2 (at concentrations of 1 μM and 10 μM) • ATP (P2X3R agonist, 10 μM) • Capsaicin (TRPV1 ligand, 10 μM) • KCl (50 mM) • Calcium imaging setup (calcium microscope)
• Euthanize 8-week-old male mice according to ethical guidelines. • Harvest the dorsal root ganglia (DRG) from the mice.
• Culture the DRG neurons in appropriate growth media for 24 hours. 3. […]
• Measure and record the average calcium flux (A). • Determine the percentage of responding neurons, identifying responding neurons as those with an f340/f380 fluorescence ratio >10% (B).
Eight-week-old C57BL6 male mice were euthanized, DRG harvested, and neurons cultured for 24 hours. The neurons were then loaded with Fura-2AM, a calcium-responsive dye, and single-neuron calcium flux was recorded by calcium microscopy. […] Average calcium flux (FIG. 1A) and the percentage (FIG. 1B) of responding neurons (identified as f340/f380>10% fluorescence) are shown. […]

[2] = Compound 1, 1 μM in 20 μL PBS, plantar right paw, 24 hours after CFA, 1, 3, 6, 24 hours post-treatment

CCN(CC)C(=O)[C@@H]1C=C2c3cccc4[nH]cc(c34)C[C@H]2[N+](C)(CC)C1 (stereo partly drawn) [Compound 1, (6aR,9R)-9-(diethylcarbamoyl)-7-ethyl-7-methyl-4,6,6a,7,8,9-hexahydroindolo[4,3-fg]quinolin-7-ium Iodide]
CFA-induced durable reduction of right paw usage (C57BL6 mice; [2]): partly reduced | left (contralateral) paw usage after CFA in the right paw, compared to control mice (C57BL6 mice; [2]): did not change | reversal of CFA-induced mechanical hypersensitivity (C57BL6 mice): partial reversal | calcium flux / activation of DRG neurons (interpretation) [1]: produced calcium flux

CCCCCC[N+]1(C)C[C@H](C(=O)N(CC)CC)C=C2c3cccc4[nH]cc(c34)C[C@H]21 (stereo partly drawn) [Compound 2, (6aR,9R)-9-(diethylcarbamoyl)-7-hexyl-7-methyl-4,6,6a, 7,8,9-hexahydroindolo[4,3-fg]quinolin-7-ium Iodide]
left (contralateral) paw usage after CFA in the right paw, compared to control mice (C57BL6 mice; Compound 2, 1 μM in 20 μL DMSO, plantar right paw, 24 hours after CFA, 1, 3, 6, 24 hours post-treatment): did not change | CFA-induced durable reduction of right (injured) paw usage (C57BL6 mice; Compound 2, 1 μM in 20 μL DMSO, plantar right paw, effect beginning 24 hours after compound administration): partly reduced | reversal of CFA-induced mechanical hypersensitivity (C57BL6 mice): partial reversal | calcium flux / activation of DRG neurons (interpretation) [1]: did not produce calcium flux
